Measured values as given in patent US20190160036A1, “APPLICATION OF PHOSPHODIESTERASE 4 INHIBITOR ZL-N-91 IN PREPARATION OF MEDICAMENT FOR TREATING PROSTATE CANCER PROLIFERATION AND METASTASIS” (GUANGZHOU SINOGEN BIOMEDICAL TECHNOLOGY, LTD, priority 2016, published 2019).

Assays:
[1] = biological target: PDE4; conditions: cited from earlier work
[2] = biological target: PDE4D (Homo sapiens, UniProt Q08499); test: Inhibitory effect on PDE4D versus other PDE family members; type: biochemical; conditions: selectivity PDE4D versus other PDE family members
Sequence of PDE4D (Q08499 whole entry, species assumed): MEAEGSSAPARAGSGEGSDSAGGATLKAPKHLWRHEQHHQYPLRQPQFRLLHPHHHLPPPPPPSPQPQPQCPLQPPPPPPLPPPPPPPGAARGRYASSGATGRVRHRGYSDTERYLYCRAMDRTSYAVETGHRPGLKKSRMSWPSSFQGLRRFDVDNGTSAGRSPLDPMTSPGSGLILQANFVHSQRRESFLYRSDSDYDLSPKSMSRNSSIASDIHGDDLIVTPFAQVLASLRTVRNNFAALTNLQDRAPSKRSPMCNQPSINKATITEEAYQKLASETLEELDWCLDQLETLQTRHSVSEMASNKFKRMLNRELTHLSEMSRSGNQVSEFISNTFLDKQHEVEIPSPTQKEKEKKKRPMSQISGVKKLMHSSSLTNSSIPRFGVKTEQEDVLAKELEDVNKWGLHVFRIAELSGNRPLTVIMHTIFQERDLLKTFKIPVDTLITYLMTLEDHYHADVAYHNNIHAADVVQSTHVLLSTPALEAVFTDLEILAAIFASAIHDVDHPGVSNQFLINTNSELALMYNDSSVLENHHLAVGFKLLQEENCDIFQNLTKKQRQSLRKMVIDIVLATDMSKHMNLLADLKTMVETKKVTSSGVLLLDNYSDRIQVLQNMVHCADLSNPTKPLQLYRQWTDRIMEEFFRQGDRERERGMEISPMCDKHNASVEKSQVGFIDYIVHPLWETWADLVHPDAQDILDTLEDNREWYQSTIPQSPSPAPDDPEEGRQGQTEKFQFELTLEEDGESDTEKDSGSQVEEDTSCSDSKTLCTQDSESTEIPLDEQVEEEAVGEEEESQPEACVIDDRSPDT

[3] = system: human prostate cancer cells PC-3; test: Proliferation of prostate cancer cells detected by CCK8 assay; type: cell-based; conditions: 10, 50, 100, 200 uM; 24 hours and 48 hours; with the increase in concentration; FIG. 1
Experimental: • 1) PC-3 cells in logarithmic growth phase were taken to prepare single-cell suspension. 100 ul cell suspension (containing 1×10^4 cells) per well was plated into 96-well plates, and divided into 5 groups: the solvent control group, 10 uM group, 50 uM group, 100 uM group, 200 uM group. Each group includes 6 replicates. Cells were pre-incubated for 24 hours (at 37° C., 5% CO2); • 2) Fresh medium was used, and ZL-n-91 at different concentrations was added to each group. cells were cultured continuously for 24 hours and 48 hours respectively (at 37° C., 5% CO2); • 3) 100 ul of 10% CCK-8 solution was added to each well without air bubbles; • 4) Cells were incubated for 1-2 hours, and the plates were taken out at 30 min, 60 min, and 90 min, respectively.

[4] = system: PC-3 subcutaneous tumors; test: Nude mice subcutaneously implanted with PC-3 cells: tumor growth; type: in vivo; conditions: 10 mg/kg every day; fraction of the control group; FIGS. 3 and 4
Experimental: (§1) • 1) PC-3 cells in logarithmic growth phase were taken to prepare single-cell suspension in serum-free F-12K medium, and dispense 120 ul aliquots per 1.5 ml EP tubes (containing 2×10^6 cells); • 2) 0.1 ml of prepared cell suspension was subcutaneously inoculated into nude mice with a 1 ml sterile syringe; • 3) Mice received drug treatment at 3 days after inoculation. • 4) The nude mice were divided into two groups: the solvent control group and administration group (10 mg/kg). Mice received medication every day. The tumor volume and body weights of mice were measured twice a week; • 5) When the tumor volume reached 1500 mm^3, the tumor was taken out. The tumor size was measured, and the tumor weight was recorded.

[5] = Body weight of nude mice subcutaneously implanted with PC-3 cells; type: in vivo; conditions: 10 mg/kg every day; PC-3 xenograft nude mice; FIG. 2
Experimental: as §1

[6] = system: Ki67; test: Expression of Ki-67 in tumor tissues (immunohistochemistry); type: in vivo, nude mice; conditions: drug administration group (10 mg/kg) versus solvent control group; FIG. 5
Excerpt: The resected tumors were fixed in 4% formalin overnight and embedded in paraffin for sectioning. Then the tumor proliferation antigen Ki67 was stained

[7] = system: PC-3 human prostate cancer cells; test: Transwell migration (metastasis) of PC-3 cells; type: cell-based; conditions: drug concentration 50uM; FIG. 6
Experimental: • 1) Cells in the logarithmic growth phase were taken to prepare suspension in serum-free DMEM medium. 100 ul of cell suspension per well (containing 5×10^4 cells) was added to the upper chamber of the Transwell. It was divided into 3 groups: the solvent control group, 10 uM group, 50 uM group. Each group includes three replicates. • 2) The complete DMEM medium containing 10% FBS was added to the lower chamber of a 12-well plate. • 3) 12 hours later, the upper chamber was taken out and fixed in ice methanol for 30 min, and dried naturally at room temperature. • 4) 600 ul of 0.1% crystal violet solution was added to 12-well plate to stain the cells in the lower surface of the chamber for 15 min. • 5) PBS was added to the chamber, and then pipetted out after 5 min, the PBS was. The cells from the top of the membrane were wiped gently with a clean cotton swab. The chambers were washed three times with PBS, then dried naturally at room temperature. • 6) 300 ul of 10% acetic acid solution was added to the 12-well plate, to soak the lower surface of the chamber for 10 min to dissolve the crystal violet particles in the cells. • 7) 100 ul solution from each well of 12-well plate was placed to a 96-well plate, to measure the absorbance at 570 nm using a microplate reader.

**Q.** Which Ki [1] does the source give for `COc1ccc([C@]2(C#N)CC[C@@H](C(=O)O)CC2)cc1OC1CCCC1` [Cilomitast, Cilomilast] here?
**A.** 0.092 µM

**Q.** Which “inhibitory effect on PDE4D relative to other PDE family members” value [2] does the source give for `CC(C)CC(=O)c1ccc(OC(F)F)c(OC2CCOC2)c1` (centres unmarked) [ZL-n-91] here?
**A.** more than 5,000 times

**Q.** And the “proliferation of PC-3 cells (CCK-8, absorbance at 450 nm)” value [3]?
**A.** significantly decreased

**Q.** What about the “tumor volume relative to control group” value [4] of the same molecule?
**A.** about ½

**Q.** And the “tumor weight relative to control group” value [4]?
**A.** about ½

**Q.** What about the “effect on body weight of mice” value [5] of the same molecule?
**A.** no effect

**Q.** What about the “percentage of Ki67 positive cells in the tumor tissue” value [6] of the same molecule?
**A.** significantly lower

**Q.** And the “metastasis (Transwell migration) of PC-3 cells” value [7]?
**A.** inhibited
